The text below walks through data of patent publication US7504393B2, “Benzylamine analogues” (priority 2001, dated 2009).

One may read the IC50 as the concentration at which inhibition is half-maximal.

One assay concerns the target T1, serotonin re-uptake (Rattus norvegicus, UniProt P31652).
T1 construct: synaptosome prepared from rat whole brains except the cerebellums; from tissue; host or cells: synaptosomes from rat whole brain except the cerebellum
As to the kind of experiment: Serotonin re-uptake inhibitory activity (synaptosome, [3H]5-HT). The assay is classed as biochemical. As to the method: Serotonin re-uptake inhibitory activity was determined using synaptosome prepared from rat whole brains except the cerebellums. Briefly, 10 μl of DMSO solution-dissolved test substance (control group; DMSO solution alone) was added to 1 ml of synaptosome and incubated for 5 min at 37° C. (in the control, DMSO alone was added to the synaptosome and incubated at 4° C.). Furthermore, 10 μl of [^3H]5-HT solution (final concentration: 10 μM as a total concentration of 5-HT, 100 nM as [^3H]5-HT) was added and incubated for 5 min at 37° C. Then 4 ml of ice-cold saline was added to stop the response. The response solution was filtered, 4 ml of saline was added, and the solution was once again filtered. Furthermore, 5 ml of Pico-Fluor was added, then ^3H levels on filter papers were counted by a liquid scintillation counter. Concentrations of test compounds to inhibit serotonin re-uptake by 50% (IC50) were calculated.

For the next assay, the target named is T2, acetylcholinesterase (Mus musculus, UniProt P21836).
T2 construct: phosphate buffer solution containing the brain homogenate; from tissue; host or cells: mouse whole brain homogenate
T2 sequence (P21836 32-614): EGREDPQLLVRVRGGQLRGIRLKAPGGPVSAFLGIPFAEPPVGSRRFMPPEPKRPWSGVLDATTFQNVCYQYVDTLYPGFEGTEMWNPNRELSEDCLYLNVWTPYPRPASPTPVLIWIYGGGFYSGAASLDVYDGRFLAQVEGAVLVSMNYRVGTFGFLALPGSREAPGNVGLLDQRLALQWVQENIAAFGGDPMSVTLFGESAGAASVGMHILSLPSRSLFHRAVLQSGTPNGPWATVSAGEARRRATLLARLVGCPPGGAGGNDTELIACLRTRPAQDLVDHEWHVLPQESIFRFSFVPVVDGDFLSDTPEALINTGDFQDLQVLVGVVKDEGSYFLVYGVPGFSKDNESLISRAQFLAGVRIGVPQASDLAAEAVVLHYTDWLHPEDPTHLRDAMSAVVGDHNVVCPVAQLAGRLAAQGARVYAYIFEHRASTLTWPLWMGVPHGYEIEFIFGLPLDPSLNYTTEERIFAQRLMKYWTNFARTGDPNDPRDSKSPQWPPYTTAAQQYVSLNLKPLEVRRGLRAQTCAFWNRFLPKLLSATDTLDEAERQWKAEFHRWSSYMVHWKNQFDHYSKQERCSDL
As to the kind of experiment: biochemical.

[1] abbreviates: synaptosome from rat whole brain except cerebellum, [3H]5-HT, 37° C., read-out: IC50 (nM) Serotonin re-uptake inhibitory activity.

Counter-ions that a name gives are not always drawn. Like-named read-outs stand apart in the source and are kept apart here.

T1 sequence (P31652 whole entry): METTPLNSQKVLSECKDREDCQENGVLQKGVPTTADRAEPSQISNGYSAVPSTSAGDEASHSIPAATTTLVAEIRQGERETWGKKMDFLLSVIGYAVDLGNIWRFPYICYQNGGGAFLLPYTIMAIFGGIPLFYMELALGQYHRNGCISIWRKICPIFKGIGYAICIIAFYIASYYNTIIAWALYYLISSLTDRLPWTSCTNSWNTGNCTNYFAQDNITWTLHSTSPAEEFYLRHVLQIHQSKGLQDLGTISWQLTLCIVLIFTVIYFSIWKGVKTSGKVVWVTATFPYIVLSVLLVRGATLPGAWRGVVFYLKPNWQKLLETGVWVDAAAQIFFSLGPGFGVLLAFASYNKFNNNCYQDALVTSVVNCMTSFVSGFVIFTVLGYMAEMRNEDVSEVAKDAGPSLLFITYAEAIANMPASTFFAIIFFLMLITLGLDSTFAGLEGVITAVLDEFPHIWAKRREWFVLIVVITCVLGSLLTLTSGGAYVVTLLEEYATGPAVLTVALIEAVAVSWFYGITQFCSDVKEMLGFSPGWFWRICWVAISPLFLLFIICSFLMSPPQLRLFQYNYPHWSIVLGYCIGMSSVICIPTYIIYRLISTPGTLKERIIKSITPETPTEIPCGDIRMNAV

In the case of `CN(C)C(=O)Oc1ccc(C(CCOc2ccc(Cl)cc2)N(C)C)cc1` (stereo not drawn) [Test Compound 41, 4-[3-(4-Chlorophenoxy)-1-dimethylaminopropyl]phenyl dimethylcarbamate hydrochloride], the IC50 stood at 507 nM at serotonin re-uptake (setting [1]) and 79 nM against acetylcholinesterase. For the molecule `CNC(CCOc1ccc(Cl)cc1)c1ccc(OC(=O)N(C)C)cc1` (stereo not drawn) [Test Compound 16, 4-[3-(4-Chlorophenoxy)-1-methylaminopropyl]phenyl dimethylcarbamate hydrochloride], the 50% inhibitory concentration (IC50) on serotonin re-uptake (setting [1]) came to 493 nM; at acetylcholinesterase it was 210 nM. Take `CN(C)C(=O)Oc1ccc2c(c1)C(CCOc1ccc(Cl)cc1)N(C)CC2` (stereo not drawn) [Test Compound 191, 2-Methyl-1-[2-(4-chlorophenoxy)-ethyl]-1,2,3,4-tetrahydroisoquinolin-7-yl dimethylcarbamate hydrochloride]: the figures for the concentration for half-maximal inhibition (IC50) at serotonin re-uptake (setting [1]) and at acetylcholinesterase were 520 nM and 265 nM, respectively. For `CN[C@H](CCOc1ccc([N+](=O)[O-])cc1Cl)c1ccc(OC(=O)N(C)C)cc1` [Test Compound 128, (R)-4-[3-(2-Chloro-4-nitrophenoxy)-1-methylaminopropyl]phenyl dimethylcarbamate hydrochloride], the figures for the IC50 at serotonin re-uptake (setting [1]) and on acetylcholinesterase were 70 nM and 15 nM, respectively.

In the case of `CN[C@H](CCOc1ccc([N+](=O)[O-])cc1)c1ccc(OC(=O)N(C)C)c(C)c1` [Test Compound 184, (R)-4-[3-(4-Nitrophenoxy)-1-methylaminopropyl]-2-methylphenyl dimethylcarbamate hydrochloride], the figures for the IC50 on serotonin re-uptake (setting [1]) and at acetylcholinesterase were 49 nM and 56 nM, respectively. As to “4-[3-(4-Methylthiophenoxy)-1-methylaminopropyl]phenyl dimethylcarbamate hydrochloride [Test Compound 174]”, at serotonin re-uptake (setting [1]), the IC50 came out at 85 nM. On to `CN(C)C(=O)Oc1ccc2c(c1)CCN(C)C2CCOc1ccc([N+](=O)[O-])cc1` (stereo not drawn) [Test Compound 187, 2-Methyl-1-[2-(4-nitrophenoxy) -ethyl]-1,2,3,4-tetrahydroisoquinolin-6-yl dimethylcarbamate hydrochloride], for which the figures for the IC50 on serotonin re-uptake (setting [1]) and against acetylcholinesterase were 940 nM and 11 nM, respectively.

For `CN[C@@H](CCOc1ccc([N+](=O)[O-])cc1)c1ccc(OC(=O)N(C)C)c(C)c1` [Test Compound 183, (S)-4-[3-(4-Nitrophenoxy)-1-methylaminopropyl]-2-methylphenyl dimethylcarbamate hydrochloride], the half-maximal inhibitory concentration (IC50) is 67 nM on serotonin re-uptake (setting [1]) and 26 nM at acetylcholinesterase. Turning to `CN[C@@H](CCOc1ccc([N+](=O)[O-])cc1)c1cccc(OC(=O)N(C)C)c1` [Test Compound 125, (S) -3-[3-(4-Nitrophenoxy)-1-methylaminopropyl]phenyl dimathylcarbamate hydrochloride], the half-maximal inhibitory concentration (IC50) on serotonin re-uptake (setting [1]) was found to be 841 nM; on acetylcholinesterase (mouse whole brain homogenate, acetylthiocholine/DTNB, absorbance 412 nm, read-out: IC50 (nM) Acetylcholinesterase inhibitory activity) it was 19 nM. For the molecule “2-Methyl-(1R)-[2-(4-methylthiophenoxy)-ethyl]-2,3-dihydro-1H-benzo[c]azepin-7-yl dimethylcarbamate hydrochloride [Test Compound 197]”, on serotonin re-uptake (setting [1]), the half-maximal inhibitory concentration (IC50) worked out at 6 nM.

In the case of `CN(C)C(=O)Oc1ccc([C@@H](CCOc2ccc([N+](=O)[O-])cc2Cl)N(C)C)cc1` [Test Compound 130, (R)-4-[3-(2-Chloro-4-nitrophenoxy)-1-dimethylaminopropyl]phenyl dimethylcarbamate hydrochloride], the half-maximal inhibitory concentration (IC50) amounted to 88 nM at serotonin re-uptake (setting [1]) and 42 nM on acetylcholinesterase.

For the molecule `CNC(CCOc1cccc(Cl)c1)c1ccc(OC(=O)N(C)C)cc1` (stereo not drawn) [Test Compound 38, 4-[3-(3-chlorophenoxy)-1-methylaminopropyl]phenyl dimethylcarbamate hydrochloride], the figures for the IC50 on serotonin re-uptake (setting [1]) and against acetylcholinesterase were 199 nM and 175 nM, respectively. Turning to “4-[3-(4-Methylthiophenoxy)-1-dimethylaminopropyl]-2-methylphenyl dimethylcarbamate hydrochloride [Test Compound 186]”, the IC50 on serotonin re-uptake (setting [1]) turned out to be 62 nM.

For `CN[C@@H](CCOc1cccc(Cl)c1)c1ccc(OC(=O)N(C)C)cc1` [Test Compound 81, (S)-4-[3-(3-Chlorophenoxy)-1-methylaminopropyl]phenyl dimethylcarbamate hydrochloride], the IC50 on serotonin re-uptake (setting [1]) came out at 228 nM; at acetylcholinesterase it was 320 nM. On to `CNC(CCOc1ccc([N+](=O)[O-])cc1)c1cccc(OC(=O)N(C)C)c1` (stereo not drawn) [Test Compound 95, 3-[1-Methylamino-3-(4-nitrophenoxy)propyl]phenyl dimethylcarbamate hydrochloride], for which the concentration for half-maximal inhibition (IC50) on serotonin re-uptake (setting [1]) was 221 nM; against acetylcholinesterase, 52 nM. For “4-[3-(4-Chlorophenoxy)-1-dimethylaminopropyl]-2-methylphenyl dimethylcarbamate hydrochloride [Test Compound 185]”, at serotonin re-uptake (setting [1]), the IC50 is 170 nM.

Take `CN(C)C(=O)Oc1cccc(C(CCOc2ccc([N+](=O)[O-])cc2)N(C)C)c1` (stereo not drawn) [Test Compound 104, 3-[1-Dimethylamino-3-(4-nitrophenoxy)propyl]phenyl dimethylcarbamate hydrochloride]: the figures for the IC50 on serotonin re-uptake (setting [1]) and on acetylcholinesterase were 176 nM and 53 nM, respectively. Turning to `CNC(CCOc1ccc(Cl)c(F)c1)c1ccc(OC(=O)N(C)C)cc1` (stereo not drawn) [Test Compound 55, 4-[3-(4-Chloro-3-fluorophenoxy)-1-methylaminopropyl]phenyl dimethylcarbamate hydrochloride], the IC50 at serotonin re-uptake (setting [1]) was 60 nM; against acetylcholinesterase, 280 nM.

Take `Cc1cc(OCCC2c3ccc(OC(=O)N(C)C)cc3C=CCN2C)ccc1Cl` (stereo not drawn) [Test Compound 194, 2-Methyl-1-[2-(4-chloro-3-methylphenoxy)-ethyl]-2,3-dihydro-1H-benzo[c]azepin-7-yl dimethylcarbamate hydrochloride]: the values for the concentration for half-maximal inhibition (IC50) on serotonin re-uptake (setting [1]) and against acetylcholinesterase were 61 nM and 103 nM, respectively.

As for `CN(C)C(=O)Oc1ccc2c(c1)CCN(C)[C@@H]2CCOc1ccc([N+](=O)[O-])cc1Cl` [Test Compound 190, 2-Methyl-1-(R)-[2-(2-chloro-4-nitrophenoxy)-ethyl]-1,2,3,4-tetrahydroisoquinolin-6-yl dimethylcarbamate hydrochloride], the half-inhibitory concentration (IC50) on serotonin re-uptake (setting [1]) was found to be 460 nM; against acetylcholinesterase, 12 nM.

With `CN(C)C(=O)Oc1ccc2c(c1)C=CCN(C)[C@H]2CCOc1ccc([N+](=O)[O-])cc1` [Test Compound 200, 2-Methyl-(1S)-[2-(4-nitrophenoxy)-ethyl]-2,3-dihydro-1H-benzo[c]azepin-7-yl dimethylcarbamate hydrochloride], the IC50 on serotonin re-uptake (setting [1]) is 930 nM. On to “4-[3-(4-Methylthiophenoxy)-1-dimethylaminopropyl]phenyl dimethylcarbamate hydrochloride [Test Compound 175]”, for which the IC50 at serotonin re-uptake (setting [1]) amounted to 380 nM.

With “(R)-4-[3-(4-Methylthiophenoxy)-1-methylaminopropyl]phenyl dimethylcarbamate hydrochloride [Test Compound 177]”, the IC50 at serotonin re-uptake (setting [1]) came to 120 nM. As for `CN(C)C(=O)Oc1ccc2c(c1)C=CCN(C)C2CCOc1ccc([N+](=O)[O-])cc1` (stereo not drawn) [Test Compound 192, 2-Methyl-1-[2-(4-nitrophenoxy)-ethyl]-2,3-dihydro-1H-benzo[c]azepin-7-yl dimethylcarbamate hydrochloride], the concentration for half-maximal inhibition (IC50) at serotonin re-uptake (setting [1]) was 63 nM. As to “4-[3-(4-Nitrophenoxy)-1-dimethylaminopropyl]-2-methylphenyl dimethylcarbamate hydrochloride [Test Compound 182]”, the IC50 at serotonin re-uptake (setting [1]) was determined as 44 nM. Still for that read-out and setting: as for “2-Methyl-1-[2-(4-methylthiophenoxy)-ethyl]-2,3-dihydro-1H-benzo[c]azepin-7-yl dimethylcarbamate hydrochloride [Test Compound 196]”, the figure is 18 nM. With `Cc1cc(OCCC2c3cccc(OC(=O)N(C)C)c3C=CCN2C)ccc1Cl` (stereo not drawn) [Test Compound 202, 2-Methyl-[2-(4-chloro-3-methylphenoxy)-ethyl]-2,3-dihydro-1H-benzo[c]azepin-6-yl dimethylcarbamate hydrochloride], on serotonin re-uptake, the IC50 amounted to 900 nM. Regarding “(S)-4-[3-(4-Methylthiophenoxy)-1-methylaminopropyl]phenyl dimethylcarbamate hydrochloride [Test Compound 176]”, at serotonin re-uptake (setting [1]), the 50% inhibitory concentration (IC50) came out at 56 nM. Consider `CN(C)C(=O)Oc1ccc2c(c1)C=CCN(C)[C@@H]2CCOc1ccc([N+](=O)[O-])cc1` [Test Compound 199, 2-Methyl-[[(1S)]] (1R)-[2-(4-nitrophenoxy)-ethyl]-2,3-dihydro-1H-benzo[c]azepin-7-yl dimethylcarbamate hydrochloride], for which the IC50 on serotonin re-uptake (setting [1]) stood at 6 nM.
